Measurements reported in PubChem BioAssay (NCI).
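GI50: concentration for 50% inhibition of growth. TGI: total growth inhibition.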

Experiments:
Test in all cases: NCI tumour cell line growth inhibition, 384-well format
MDA-MB-435 melanoma = test system: MDA-MB-435 melanoma
NCI-H522 lung = test system: NCI-H522 lung
MDA-MB-231 breast = test system: MDA-MB-231 breast
NCI-H226 lung = test system: NCI-H226 lung
PC-3 prostate = test system: PC-3 prostate
RPMI-8226 leukemia = test system: RPMI-8226 leukemia
LOX IMVI melanoma = test system: LOX IMVI melanoma
NCI-H23 lung = test system: NCI-H23 lung
NCI-H322M lung = test system: NCI-H322M lung
MDA-MB-468 breast = test system: MDA-MB-468 breast
DU-145 prostate = test system: DU-145 prostate
SK-MEL-5 melanoma = test system: SK-MEL-5 melanoma
SR leukemia = test system: SR leukemia

Q: Which GI50 (MDA-MB-435 melanoma) does the source give for `O=C(/C=C/c1cccc(S(=O)(=O)Nc2ccccc2)c1)NO` here?
A: 492 nM

Q: What about the TGI (MDA-MB-435 melanoma) of the same compound?
A: 1450 nM

Q: And the GI50 (NCI-H522 lung)?
A: 155 nM

Q: And the TGI (NCI-H522 lung)?
A: 610 nM

Q: And the GI50 (MDA-MB-231 breast)?
A: 249 nM

Q: And the TGI (MDA-MB-231 breast)?
A: 575 nM

Q: And the GI50 (NCI-H226 lung)?
A: 1260 nM

Q: What about the TGI (NCI-H226 lung) of the same compound?
A: 3050 nM

Q: What about the GI50 (PC-3 prostate) of the same compound?
A: 433 nM

Q: And the TGI (PC-3 prostate)?
A: 1760 nM

Q: What about the GI50 (RPMI-8226 leukemia) of the same compound?
A: 95.7 nM

Q: And the TGI (RPMI-8226 leukemia)?
A: 221 nM

Q: And the GI50 (LOX IMVI melanoma)?
A: 385 nM

Q: What about the TGI (LOX IMVI melanoma) of the same compound?
A: 1410 nM

Q: And the GI50 (NCI-H23 lung)?
A: 407 nM

Q: And the TGI (NCI-H23 lung)?
A: 1590 nM

Q: What about the GI50 (NCI-H322M lung) of the same compound?
A: 465 nM

Q: What about the TGI (NCI-H322M lung) of the same compound?
A: 1840 nM

Q: And the GI50 (MDA-MB-468 breast)?
A: 196 nM

Q: What about the TGI (MDA-MB-468 breast) of the same compound?
A: 487 nM

Q: And the GI50 (DU-145 prostate)?
A: 260 nM

Q: And the TGI (DU-145 prostate)?
A: 793 nM

Q: What about the GI50 (SK-MEL-5 melanoma) of the same compound?
A: 155 nM

Q: What about the TGI (SK-MEL-5 melanoma) of the same compound?
A: 393 nM

Q: And the GI50 (SR leukemia)?
A: 88.4 nM

Q: What about the TGI (SR leukemia) of the same compound?
A: 204 nM
